Laboratory results from ChEMBL document CHEMBL3832761, “MMV Pathogen Box Bioactivity Data” (2017).
pEC50, pIC50: −log10 of the molar value.

What was measured:
[1] = HL60 CC50 (uM) Cytotoxicity; type: functional; conditions: HL-60
Onchocerca gutturosa [2] = assay: AntiOnchocerca activity O. gutturosa adult males: Motility reduction at 12.5 uM (%); type: functional; set-up: scale not given: the % may be the effect or the level left
Onchocerca lienalis [3] = assay: AntiOnchocerca activity O. lienalis microfilariae Motility reduction (%); type: functional; set-up: concentration or dose not given beside the values
HepG2 [4] = assay: Cytotoxicity data HepG2 CC20 (uM); type: functional
Onchocerca gutturosa [5] = assay: AntiOnchocerca activity O. gutturosa adult males: MTT reduction at 12.5 uM (%); type: functional; set-up: scale not given: the % may be the effect or the level left
Onchocerca volvulus [6] = assay: AntiOnchocerca activity O. volvulus L3 Molting assay: IC50 (uM); type: functional, organism-based
Brugia pahangi [7] = assay: AntiBrugia pahangi activity Average inhibition motility at 10 uM (%); type: functional
Onchocerca volvulus [8] = assay: AntiOnchocerca activity O. volvulus L3 Molting assay: inhibition at 10 uM (%); type: functional
Onchocerca ochengi [9] = assay: AntiOnchocerca activity O. ochengi adult females: final mean inhibition motility at 10 uM on Day 7 (%); type: functional
Onchocerca ochengi [10] = assay: AntiOnchocerca activity O. ochengi adult males: final mean inhibition motility at 10 uM on Day 5 (%); type: functional
Toxoplasma gondii [11] = assay: AntiToxoplasma gondii activity data 2-day killing assay: inhibition at 10 uM (%) Experiment E; type: functional
Toxoplasma gondii [12] = assay: AntiToxoplasma gondii activity data Inhibition of plaque forming efficiency (%) Experiment B; type: functional; set-up: concentration or dose not given beside the values
Toxoplasma gondii [13] = assay: AntiToxoplasma gondii activity data 2-day killing assay: inhibition at 10 uM (%) Experiment C; type: functional; conditions: 48 h
Toxoplasma gondii [14] = assay: AntiToxoplasma gondii activity data 2-day killing assay: IC50 (uM), Experiment F; type: functional, organism-based
Toxoplasma gondii [15] = assay: AntiToxoplasma gondii activity data 2-day killing assay: inhibition at 10 uM (%) Experiment D; type: functional
Toxoplasma gondii [16] = assay: AntiToxoplasma gondii activity data 2-day killing assay: IC50 (uM), Experiment G; type: functional, organism-based
Toxoplasma gondii [17] = assay: AntiToxoplasma gondii activity data Inhibition of plaque forming efficiency (%) Experiment A; type: functional; set-up: concentration or dose not given beside the values
Wolbachia = assay: Anti-Wolbachia activity Reduction in Wolbachia infected cells at 10 uM (%); type: functional, cell-based; set-up: Activity: scale not given: the % may be the effect or the level left
Dengue virus [18] = assay: AntiDengue activity HCI DV1/A549 IC50 (uM); type: functional, organism-based
A549 = assay: A549 CC50 (uM) Cytotoxicity; type: functional; conditions: Homo sapiens
Dengue virus [19] = assay: AntiDengue activity HCI DV2/A549 IC50 (uM); type: functional, organism-based
Dengue virus [20] = assay: AntiDengue activity HCI DV4/A549 IC50 (uM); type: functional, organism-based
HepG2 [21] = assay: HepG2 CC50 (uM) Cytotoxicity; type: functional; conditions: Homo sapiens
Dengue virus [22] = assay: AntiDengue activity HCI DV3/A549 IC50 (uM); type: functional, organism-based
[23] = AntiChikungunya activity HCI CHIKV/Huh7 IC50 (uM); type: functional, Chikungunya virus
Dengue virus [24] = assay: AntiDengue activity HCI DV2/Huh7 IC50 (uM); type: functional, organism-based; conditions: Huh-7
[25] = HUH7 CC50 (uM) Cytotoxicity; type: functional; conditions: Huh-7
Trypanosoma brucei [26] = assay: AntiTrypanosoma brucei activity T. b. rhodesiense IC50 (uM); type: functional, organism-based
MRC5 = assay: MRC5 CC50 (uM) Cytotoxicity; type: functional; conditions: Homo sapiens
[27] = PMM CC50 (uM) Cytotoxicity; type: functional; conditions: Macrophage
Trypanosoma cruzi = assay: AntiTrypanosoma cruzi activity IC50 (uM); type: functional, organism-based
Leishmania infantum = assay: AntiLeishmania activity L. infantum (macrophages) IC50 (uM); type: functional, organism-based
Trypanosoma brucei [28] = assay: AntiTrypanosoma brucei activity T. b. brucei IC50 (uM); type: functional, organism-based
Leishmania major = assay: AntiLeishmania activity L. major IC50 (uM); type: functional, organism-based
Onchocerca lienalis [29] = assay: AntiOnchocerca activity O. lienalis microfilariae EC50 (uM); type: functional, organism-based
Onchocerca gutturosa [30] = assay: AntiOnchocerca activity O. gutturosa adult males: EC50 (uM); type: functional, organism-based
Brugia malayi = assay: AntiBrugia malayi activity Effect on motility; type: functional, organism-based
Brugia pahangi [31] = assay: AntiBrugia pahangi activity Average day 3 IC50 (uM); type: functional, organism-based; conditions: 72 h
CHO = assay: CHO CC50 (uM) Cytotoxicity; type: functional; conditions: Cricetulus griseus
[32] = Toxoplasma gondii, 48 h, read-out: IC50

SMILES: CC(=O)N(CCN(C(=O)c1ccc(F)cc1)c1ccccc1)c1ccccc1
- CC50 [1]: > 50 µM
- Activity (Onchocerca gutturosa [2]): 42.9%
- Activity (Onchocerca lienalis [3]): 13.3%
- CC20 (HepG2 [4]): 39 µM
- Activity (Onchocerca gutturosa [5]): 0%
- pIC50 (Onchocerca volvulus [6]): 5.50
- Inhibition (Brugia pahangi [7]): 4%
- Inhibition (Onchocerca volvulus [8]): 100%
- Inhibition (Onchocerca ochengi [9]): 4%
- Inhibition (Onchocerca ochengi [10]): 0%

SMILES: CC(C(=O)Nc1ccc2oc(-c3ccncc3)nc2c1)c1ccccc1 (stereo not given)
- CC50 [1]: > 50 µM
- Inhibition (Toxoplasma gondii [11]): 1.05%
- Inhibition (Toxoplasma gondii [12]): ~75%
- inhibition at 10 µM (Toxoplasma gondii [13]): 3.75%
- IC50 (Toxoplasma gondii [14]): no inhibition
- Inhibition (Toxoplasma gondii [15]): 62.6%
- IC50 (Toxoplasma gondii [16]): no inhibition
- Inhibition (Toxoplasma gondii [17]): 100%

SMILES: COc1cccn2c(C(=O)N3CCCCC3)c(C(F)(F)F)nc12
- CC20 (HepG2 [4]): >80 µM
- pIC50 (Wolbachia; Wolbachia): 6.30

SMILES: CCc1nc2ccc(C(=O)NCc3ccc4c(c3)OCO4)cn2c1N(C)Cc1cccs1
- CC20 (HepG2 [4]): 18.6 µM
- Activity (Wolbachia): 45%

SMILES: O=C1[C@@H](Oc2ccccc2)[C@@H](c2ccc(Cl)cc2)N1CCn1cnc2c(NCc3ccccc3)ncnc21
- pIC50 (Dengue virus [18]): 5.52
- CC50 (A549): 40 µM
- pIC50 (Dengue virus [19]): 5.22
- pIC50 (Dengue virus [20]): 5.70
- CC50 (HepG2 [21]): 3 µM
- pIC50 (Dengue virus [22]): 5.40
- pIC50 [23]: 5.22
- pIC50 (Dengue virus [24]): 5.52
- CC50 [25]: 10 µM

SMILES: CC(C)(C)OC(=O)N1CCN(c2nccc(-c3ccc(-c4ccc(Cl)cc4)s3)n2)CC1
- pIC50 (Dengue virus [18]): 5.15
- CC50 (A549): > 50 µM
- pIC50 (Dengue virus [19]): 5.15
- pIC50 (Dengue virus [20]): 5.52
- CC50 (HepG2 [21]): > 50 µM
- pIC50 (Dengue virus [22]): 5.70
- pIC50 [23]: 5.00
- pIC50 (Dengue virus [24]): < 4.30
- CC50 [25]: > 50 µM

SMILES: CCS(=O)(=O)N(Cc1ccco1)Cc1cc2ccc(C)cc2nc1O
- CC20 (HepG2 [4]): >80 µM
- Activity (Wolbachia): 52%

SMILES: CN1CCN(S(=O)(=O)c2ccc(-c3ccc4c(Nc5ncc(Cl)cn5)ccnc4c3)cc2)CC1
- pIC50 (Trypanosoma brucei [26]): 6.02
- CC20 (HepG2 [4]): 8 µM
- CC50 (MRC5): > 32 µM
- CC50 [27]: 4 µM
- pIC50 (Trypanosoma cruzi): 5.42
- pIC50 (Leishmania infantum): 5.60
- pIC50 (Trypanosoma brucei [28]): 5.42
- pIC50 (Leishmania major): 5.07

SMILES: Cc1[nH]c2cc(F)cc(F)c2c(=O)c1-c1ccc(Oc2ccc(OC(F)(F)F)cc2)cc1
- Activity (Onchocerca gutturosa [2]): 58.9%
- Activity (Onchocerca lienalis [3]): 100%
- CC20 (HepG2 [4]): >80 µM
- Activity (Onchocerca gutturosa [5]): 56.9%
- pEC50 (Onchocerca lienalis [29]): 5.86
- pEC50 (Onchocerca gutturosa [30]): 5.54

SMILES: Cc1cc(C2=NOC(c3cc(Cl)c(F)c(Cl)c3)(C(F)(F)F)C2)ccc1C(=O)NCc1ccc2c(c1)C(C)(C)OB2O (stereo not given)
- CC20 (HepG2 [4]): 10.9 µM
- pIC50 (Brugia malayi; Brugia malayi): 5.52

SMILES: Cc1ncc(-c2ccnc(Nc3ccc(S(C)(=O)=O)cc3)n2)n1C(C)C [AZD-5438]
- pIC50 (Trypanosoma brucei [26]): > 6.89
- CC20 (HepG2 [4]): 0.18 µM
- CC50 (MRC5): 1 µM
- CC50 [27]: 4 µM
- pIC50 (Trypanosoma cruzi): 5.97
- pIC50 (Leishmania infantum): 5.94
- pIC50 (Trypanosoma brucei [28]): 6.59
- pIC50 (Leishmania major): 5.50

SMILES: COc1ccc(N(CCc2cccc(C)n2)C(=O)C2CCCCC2)cc1
- CC50 [1]: > 50 µM
- Activity (Onchocerca gutturosa [2]): 42.9%
- Activity (Onchocerca lienalis [3]): 13%
- CC20 (HepG2 [4]): >80 µM
- Activity (Onchocerca gutturosa [5]): 35.7%
- pIC50 (Onchocerca volvulus [6]): 5.87
- Inhibition (Brugia pahangi [7]): 11%
- Inhibition (Onchocerca volvulus [8]): 100%
- Inhibition (Onchocerca ochengi [9]): 4%
- Inhibition (Onchocerca ochengi [10]): 7%

SMILES: O=C(Nc1nnc(S)s1)c1cc(Br)ccc1Cl
- CC50 [1]: > 50 µM
- Activity (Onchocerca gutturosa [2]): 29%
- Activity (Onchocerca lienalis [3]): 27%
- CC20 (HepG2 [4]): >80 µM
- Activity (Onchocerca gutturosa [5]): 0%
- Inhibition (Brugia pahangi [7]): 69%
- Inhibition (Onchocerca volvulus [8]): 36%
- Inhibition (Onchocerca ochengi [9]): 4%
- Inhibition (Onchocerca ochengi [10]): 0%
- pIC50 (Brugia pahangi [31]): 5.03

SMILES: Nc1ncnc2c1c(-c1cnc3ccccc3c1)nn2CC1CCNCC1
- Inhibition (Toxoplasma gondii [11]): 92.8%
- CC50 (CHO): > 50 µM
- inhibition at 10 µM (Toxoplasma gondii [13]): 48.8%
- pIC50 (Toxoplasma gondii [14]; [32]): 5.17
- Inhibition (Toxoplasma gondii [15]): 72.3%
- pIC50 (Toxoplasma gondii [16]; [32]): 5.12
- Inhibition (Toxoplasma gondii [17]): ~60%

SMILES: CC1(C)OB(O)c2ccc(C3=NOC(c4cc(Cl)c(F)c(Cl)c4)(C(F)(F)F)C3)cc21 (stereo not given)
- CC20 (HepG2 [4]): 15.4 µM
- Inhibition (Brugia malayi): 50%
